The values below come from patent US8178506B2, “Oligomeric compounds and compositions for use in modulation of small non-coding RNAs” (Regulus Therapeutics Inc., priority 2003, dated 2012).

In the oligonucleotide strings, read from the 5' end, every base follows the letter of its sugar. An asterisk marks phosphorothioate; unmarked linkages are phosphodiester. Other units and linkages are bracketed, terminal groups are in braces. A string of capitals states the bases alone. e = 2'-O-(2-methoxyethyl) (MOE); [5mC] = 5-methylcytosine

The subject of data set [1] is aP2. The experiment in a line: aP2 mRNA expression in adipocytes (real-time PCR). Type of data set: cell-based, human. As to conditions: for aP2 mRNA / AP2 mRNA: differentiating adipocytes transfected with oligomeric compound; for aP2 mRNA: Table 75; for AP2 (mRNA expression): adipocytes, 250 nM oligomeric compound, day nine post-transfection, relative to control (1.0).

The test system of data set [2] is adipocytes. The experiment in a line: Triglyceride accumulation assay in adipocytes. The format is cell-based, human.
The subject of data set [3] is PPARγ. The experiment in a line: PPARγ mRNA expression in adipocytes (real-time PCR). Type of data set: cell-based, human. As to conditions: for PPAR gamma mRNA: differentiating adipocytes transfected with oligomeric compound; for PPAR gamma (mRNA expression): adipocytes, 250 nM oligomeric compound, day nine post-transfection, relative to control (1.0).
The subject of data set [4] is HSL. The experiment in a line: HSL mRNA expression in adipocytes (real-time PCR). Conditions: for HSL mRNA: differentiating adipocytes transfected with oligomeric compound; for HSL (mRNA expression): adipocytes, 250 nM oligomeric compound, day nine post-transfection, relative to control (1.0). The format is cell-based, human.
The subject of data set [5] is Glut4. The experiment in a line: Glut4 mRNA expression in adipocytes (real-time PCR). Type of data set: cell-based, human. Conditions: for GLUT4 mRNA: differentiating adipocytes transfected with oligomeric compound; for Glut4 (mRNA expression): adipocytes, 250 nM oligomeric compound, day nine post-transfection, relative to control (1.0).
Data set [6] concerns HuVECs. The experiment in a line: Endothelial tube formation assay in HuVECs. Conditions: 75 nM oligomeric compound.
Where [7] appears, read: differentiating adipocytes transfected with oligomeric compound, Table 75.
Where [8] appears, read: differentiating adipocytes transfected with oligomeric compound.
Where [9] appears, read: adipocytes, 250 nM oligomeric compound, relative to control (1.0), Table 16.
Setting [10] is: adipocytes, 250 nM oligomeric compound, relative to control (1.0), Table 15.

With “327902 (antisense eG*eG*e[5mC]*eT*eG*eT*e[5mC]*eA*eA*eT*eT*e[5mC]*eA*eT*eA*eG*eG*eT*e[5mC]*eA*eG) [compound 327902]”, the “aP2 mRNA” value in data set [1] was 58 percentage of untreated control (UTC). Also, the “TG (triglyceride accumulation)” value in data set [2] (setting [7]) is on record as 55 percentage of untreated control (UTC). Further, the “PPAR gamma mRNA” value in data set [3] (Table 75) is 56 percentage of untreated control (UTC). Besides, the “HSL mRNA” value in data set [4] (Table 75) was 56 percentage of untreated control (UTC). For the same substance, the “GLUT4 mRNA” value in data set [5] (Table 75) is given as 15 percentage of untreated control (UTC). In addition, the “% Activity Relative to UTC (tube formation)” value (“% Activity Relative to UTC” below) in data set [6] (Table 57) is on record as 41.4%.

Regarding “327877 (antisense e[5mC]*eG*e[5mC]*e[5mC]*eA*eA*eT*eA*eT*eT*eT*eA*e[5mC]*eG*eT*eG*e[5mC]*eT*eG*e[5mC]*eT*eA) [compound 327877]”, in data set [1], the “AP2 mRNA” value is given as 77 percentage of untreated control (UTC). The “TG (triglyceride accumulation)” value in data set [2] (setting [8]) was 109 percentage of untreated control (UTC). Also, the “PPAR gamma mRNA” value in data set [3] is recorded as 85 percentage of untreated control (UTC). For the same substance, the “HSL mRNA” value in data set [4] is reported as 82 percentage of untreated control (UTC). The “GLUT4 mRNA” value in data set [5] was 119 percentage of untreated control (UTC). For the same substance, the “% Activity Relative to UTC” value in data set [6] (Table 56) was 78.6%.

Consider “327887 (antisense eG*e[5mC]*eG*eA*e[5mC]*e[5mC]*eA*eT*eG*eG*e[5mC]*eT*eG*eT*eA*eG*eA*e[5mC]*eT*eG*eT*eT*eA) [compound 327887]”, for which the “aP2 mRNA” value in data set [1] was 60 percentage of untreated control (UTC). The “TG (triglyceride accumulation)” value in data set [2] (setting [7]) is given as 54 percentage of untreated control (UTC). The “PPAR gamma mRNA” value in data set [3] (Table 75) is listed as 81 percentage of untreated control (UTC). In addition, the “HSL mRNA” value in data set [4] (Table 75) is on record as 53 percentage of untreated control (UTC). In addition, the “GLUT4 mRNA” value in data set [5] (Table 75) is 43 percentage of untreated control (UTC). For the same substance, the “% Activity Relative to UTC” value in data set [6] (Table 56) is on record as 57.1%.

As to “327931 (antisense eA*eA*e[5mC]*e[5mC]*eA*eT*eA*e[5mC]*eA*eA*e[5mC]*e[5mC]*eT*eA*e[5mC]*eT*eA*e[5mC]*e[5mC]*eT*e[5mC]*eA) [compound 327931]”, the “AP2 (mRNA expression)” value in data set [1] (Table 16) worked out at 1.00. In addition, the “TG (triglyceride accumulation)” value in data set [2] (setting [9]) stood at 1.11. The “PPAR gamma (mRNA expression)” value in data set [3] (Table 16) amounted to 1.56. For the same substance, in data set [4] (Table 16), the “HSL (mRNA expression)” value is 0.99. The “Glut4 (mRNA expression)” value in data set [5] (Table 16) was determined as 1.37. In addition, the “% Activity Relative to UTC” value in data set [6] (Table 58) stood at 103.7%.

“327893 (antisense eA*eA*e[5mC]*e[5mC]*eA*e[5mC]*eA*e[5mC]*eA*eA*e[5mC]*e[5mC]*eT*eA*e[5mC]*eT*eA*e[5mC]*e[5mC]*eT*e[5mC]*eA) [compound 327893]”: the “AP2 (mRNA expression)” value in data set [1] (Table 16) is 0.97. In data set [2] (setting [9]), the “TG (triglyceride accumulation)” value is 0.95. Further, in data set [3] (Table 16), the “PPAR gamma (mRNA expression)” value is recorded as 1.03. Further, the “HSL (mRNA expression)” value in data set [4] (Table 16) turned out to be 0.85. The “Glut4 (mRNA expression)” value in data set [5] (Table 16) is 1.47. Moreover, in data set [6] (Table 56), the “% Activity Relative to UTC” value turned out to be 100.0%.

Take “327905 (antisense e[5mC]*eA*eG*eA*e[5mC]*eT*e[5mC]*e[5mC]*eG*eG*eT*eG*eG*eA*eA*eT*eG*eA*eA*eG*eG*eA) [compound 327905]”: the figures for the “AP2 (mRNA expression)” value in data set [1] (Table 15) and in data set [1] (Table 16) were 1.14 and 0.68, respectively. Further, the “TG (triglyceride accumulation)” value was 0.69 in data set [2] (setting [10]) and 0.58 in data set [2] (setting [9]). For the same substance, the “PPAR gamma (mRNA expression)” value was found to be 0.54 in data set [3] (Table 15) and 0.83 in data set [3] (Table 16). Besides, the entries for the “HSL (mRNA expression)” value in data set [4] (Table 15) and in data set [4] (Table 16) were 1.11 and 0.69, respectively. Moreover, the “Glut4 (mRNA expression)” value was 0.84 in data set [5] (Table 15) and 0.40 in data set [5] (Table 16). Moreover, the “% Activity Relative to UTC” value in data set [6] (Table 57) was determined as 48.3%.

For the substance “327928 (antisense eA*eA*e[5mC]*e[5mC]*eG*eA*eT*eT*eT*e[5mC]*eA*eG*eA*eT*eG*eG*eT*eG*e[5mC]*eT*eA*eG) [compound 327928]”, the “AP2 mRNA” value in data set [1] is 77 percentage of untreated control (UTC). The “TG (triglyceride accumulation)” value in data set [2] (setting [8]) was 45 percentage of untreated control (UTC). The “PPAR gamma mRNA” value in data set [3] is recorded as 57 percentage of untreated control (UTC). Moreover, the “HSL mRNA” value in data set [4] was 52 percentage of untreated control (UTC). Further, in data set [5], the “GLUT4 mRNA” value was 39 percentage of untreated control (UTC). Further, the “% Activity Relative to UTC” value in data set [6] (Table 58) turned out to be 37.0%.

With “327896 (antisense eA*e[5mC]*eA*eG*eT*eT*e[5mC]*eT*eT*e[5mC]*eA*eA*e[5mC]*eT*eG*eG*e[5mC]*eA*eG*e[5mC]*eT*eT) [compound 327896]”, the “aP2 mRNA” value in data set [1] is 43 percentage of untreated control (UTC). In data set [2] (setting [7]), the “TG (triglyceride accumulation)” value is on record as 22 percentage of untreated control (UTC). Also, in data set [3] (Table 75), the “PPAR gamma mRNA” value was 52 percentage of untreated control (UTC). Besides, the “HSL mRNA” value in data set [4] (Table 75) is 37 percentage of untreated control (UTC). Moreover, the “GLUT4 mRNA” value in data set [5] (Table 75) is given as 35 percentage of untreated control (UTC). Also, the “% Activity Relative to UTC” value in data set [6] (Table 56) is listed as 64.3%.

For the substance “327920 (antisense eG*eA*eG*eA*e[5mC]*e[5mC]*e[5mC]*eA*eG*eT*eA*eG*e[5mC]*e[5mC]*eA*eG*eA*eT*eG*eT*eA*eG*e[5mC]*eT) [compound 327920]”, in data set [1], the “aP2 mRNA” value is on record as 22 percentage of untreated control (UTC). The “TG (triglyceride accumulation)” value in data set [2] (setting [7]) is on record as 20 percentage of untreated control (UTC). For the same substance, the “PPAR gamma mRNA” value in data set [3] (Table 75) was 34 percentage of untreated control (UTC). Further, the “HSL mRNA” value in data set [4] (Table 75) is on record as 14 percentage of untreated control (UTC). In addition, the “GLUT4 mRNA” value in data set [5] (Table 75) is listed as 0 percentage of untreated control (UTC). Besides, the “% Activity Relative to UTC” value in data set [6] (Table 57) is given as 41.4%.

“327897 (antisense eA*e[5mC]*eA*eG*eG*e[5mC]*e[5mC]*eG*eG*eG*eA*e[5mC]*eA*eA*eG*eT*eG*e[5mC]*eA*eA*eT*eA) [compound 327897]”: the “aP2 mRNA” value in data set [1] is on record as 62 percentage of untreated control (UTC). Further, the “TG (triglyceride accumulation)” value in data set [2] (setting [7]) is 28 percentage of untreated control (UTC). In addition, the “PPAR gamma mRNA” value in data set [3] (Table 75) is recorded as 66 percentage of untreated control (UTC). In data set [4] (Table 75), the “HSL mRNA” value is reported as 39 percentage of untreated control (UTC). Further, the “GLUT4 mRNA” value in data set [5] (Table 75) is 32 percentage of untreated control (UTC). For the same substance, in data set [6] (Table 59), the “% Activity Relative to UTC” value amounted to 40.0%.

As to “327903 (antisense eA*eA*e[5mC]*eT*eA*eT*eA*e[5mC]*eA*eA*e[5mC]*e[5mC]*eT*eA*e[5mC]*eT*eA*e[5mC]*e[5mC]*eT*e[5mC]*eA) [compound 327903]”, the entries for the “AP2 (mRNA expression)” value in data set [1] (Table 15) and in data set [1] (Table 16) were 1.15 and 0.92, respectively. For the same substance, the entries for the “TG (triglyceride accumulation)” value in data set [2] (setting [10]) and in data set [2] (setting [9]) were 1.20 and 0.58, respectively. The “PPAR gamma (mRNA expression)” value was 1.19 in data set [3] (Table 15) and 0.98 in data set [3] (Table 16). For the same substance, the figures for the “HSL (mRNA expression)” value in data set [4] (Table 15) and in data set [4] (Table 16) were 1.23 and 0.80, respectively. Also, the entries for the “Glut4 (mRNA expression)” value in data set [5] (Table 15) and in data set [5] (Table 16) were 1.72 and 1.12, respectively. For the same substance, the “% Activity Relative to UTC” value in data set [6] (Table 57) is reported as 103.5%.
